Test results as given in EPA's CvTdb concentration-time database.

Tests used:
Rat [1] = assay: concentration in brain after dosing; settings: 24 h; dosed: Perfluorodecanoic acid; 10 mg/kg; oral; Male; Harlan Sprague Dawley
Rat [2] = assay: concentration in plasma after dosing; settings: dosed: Perfluorodecanoic acid, 2 mg/kg, iv, Male, F344
Rat [3] = assay: concentration in plasma after dosing; settings: dosed: Perfluorodecanoic acid, 2 mg/kg, iv, Male, F344; remark: listed apart in the source
Rat [4] = assay: concentration in plasma after dosing; settings: dosed: Perfluorodecanoic acid, 2 mg/kg, iv, Male, F344; remark: listed apart in the source
Rat [5] = assay: concentration in plasma after dosing; settings: dosed: dichloroacetic acid, 40 mg/kg, oral, Female, Harlan Sprague Dawley
Rat [6] = assay: concentration in plasma after dosing; settings: 20 min; dosed: dichloroacetic acid; 10 mg/kg; iv; Male; F344
Rat [7] = assay: concentration in plasma after dosing; settings: dosed: Wyeth-14643, 2.0 mg/kg, iv, Male, Sprague-Dawley
Rat [8] = assay: concentration in plasma after dosing; settings: dosed: Wyeth-14643, 1.0 mg/kg, oral, Male, Sprague-Dawley
Rat [9] = assay: concentration in plasma after dosing; settings: dosed: Wyeth-14643, 5.0 mg/kg, oral, Male, Sprague-Dawley
Rat [10] = assay: concentration in plasma after dosing; settings: 4 h; dosed: Wyeth-14643; 5.0 mg/kg; oral; Male; Sprague-Dawley
Rat [11] = assay: concentration in heart after dosing; settings: 6 h; dosed: Bis 2-Chloroethoxy Methane; 20 mg/kg; iv; Male; F344
Rat [12] = assay: concentration in heart after dosing; settings: 4 h; dosed: Bis 2-Chloroethoxy Methane; 20 mg/kg; iv; Female; F344
Rat [13] = assay: concentration in heart after dosing; settings: 1 h; dosed: Bis 2-Chloroethoxy Methane; 20 mg/kg; iv; Female; F344
Rat [14] = assay: concentration in plasma after dosing; settings: 2 h; dosed: Bis 2-Chloroethoxy Methane; 20 mg/kg; iv; Male; F344
Rat [15] = assay: concentration in thymus after dosing; settings: 6 h; dosed: Bis 2-Chloroethoxy Methane; 20 mg/kg; iv; Female; F344
Rat [16] = assay: concentration in thymus after dosing; settings: 5 h; dosed: Bis 2-Chloroethoxy Methane; 20 mg/kg; iv; Male; F344
Rat [17] = assay: concentration in brain after dosing; settings: 3 h; dosed: Fluorotelomer alcohol 8+2; 80 mg/kg; oral; Female; Harlan Sprague Dawley
Rat [18] = assay: concentration in brain after dosing; settings: 1 h; dosed: Fluorotelomer alcohol 8+2; 80 mg/kg; oral; Female; Harlan Sprague Dawley
Rat [19] = assay: concentration in brain after dosing; settings: 1 h; dosed: Fluorotelomer alcohol 8+2; 24 mg/kg; oral; Male; Harlan Sprague Dawley
Rat [20] = assay: concentration in plasma after dosing; settings: dosed: Fluorotelomer alcohol 8+2, 40 mg/kg, iv, Male, F344
Rat [21] = assay: concentration in kidney after dosing; settings: 1 h; dosed: Fluorotelomer alcohol 8+2; 80 mg/kg; oral; Female; Harlan Sprague Dawley
Rat [22] = assay: concentration in kidney after dosing; settings: 6 h; dosed: Fluorotelomer alcohol 8+2; 80 mg/kg; oral; Female; Harlan Sprague Dawley
Rat [23] = assay: concentration in plasma after dosing; settings: dosed: Fluorotelomer alcohol 8+2, 12 mg/kg, iv, Male, F344
Rat [24] = assay: concentration in plasma after dosing; settings: 5 min; dosed: Fluorotelomer alcohol 8+2; 12 mg/kg; iv; Male; F344
Rat [25] = assay: concentration in plasma after dosing; settings: dosed: Fluorotelomer alcohol 8+2, 12 mg/kg, oral, Male, Harlan Sprague Dawley
Rat [26] = assay: concentration in liver after dosing; settings: 2 h; dosed: Thiodiglycolic Acid; 20 mg/kg; iv; Female; Harlan Sprague Dawley
Rat [27] = assay: concentration in liver after dosing; settings: 8 h; dosed: Thiodiglycolic Acid; 20 mg/kg; iv; Female; Harlan Sprague Dawley
Rat [28] = assay: concentration in liver after dosing; settings: 2 h; dosed: Thiodiglycolic Acid; 20 mg/kg; iv; Female; Harlan Sprague Dawley; remark: listed apart in the source
Rat [29] = assay: concentration in heart after dosing; settings: 3 h; dosed: Thiodiglycolic Acid; 20 mg/kg; iv; Male; Harlan Sprague Dawley
Rat [30] = assay: concentration in liver after dosing; settings: 1 h; dosed: Thiodiglycolic Acid; 20 mg/kg; iv; Female; Harlan Sprague Dawley
Rat [31] = assay: concentration in liver after dosing; settings: 5.333 h; dosed: Thiodiglycolic Acid; 20 mg/kg; iv; Female; Harlan Sprague Dawley
Rat [32] = assay: concentration in heart after dosing; settings: 5.333 h; dosed: Thiodiglycolic Acid; 20 mg/kg; iv; Female; Harlan Sprague Dawley
Rat [33] = assay: concentration in plasma after dosing; settings: 1 h; dosed: Thiodiglycolic Acid; 20 mg/kg; iv; Male; Harlan Sprague Dawley
Rat [34] = assay: concentration in thymus after dosing; settings: 5.333 h; dosed: Thiodiglycolic Acid; 20 mg/kg; iv; Female; Harlan Sprague Dawley
Rat [35] = assay: concentration in plasma after dosing; settings: 5.333 h; dosed: Thiodiglycolic Acid; 20 mg/kg; iv; Male; Harlan Sprague Dawley
Rat [36] = assay: concentration in thymus after dosing; settings: 20 min; dosed: Thiodiglycolic Acid; 20 mg/kg; iv; Female; Harlan Sprague Dawley
Rat [37] = assay: concentration in plasma after dosing; settings: 22 h; dosed: Primidone; 80 mg/kg; oral; Male; F344
Rat [38] = assay: concentration in plasma after dosing; settings: 9 h; dosed: Primidone; 130 mg/kg; oral; Female; F344
Rat [39] = assay: concentration in plasma after dosing; settings: 0.25 h; dosed: Primidone; 30 mg/kg; oral; Male; F344

O=C(O)C(F)(F)C(F)(F)C(F)(F)C(F)(F)C(F)(F)C(F)(F)C(F)(F)C(F)(F)C(F)(F)F [Perfluorodecanoic acid]
Settings | concentration in brain [ng/g]
Rat [1] | 2840

Settings | concentration in plasma [ng/mL]
Rat [2], 24 h | 5550
Rat [2], 1848 h | 488
Rat [3], 24 h | 5510
Rat [3], 1848 h | 410
Rat [4], 1 h | 6390
Rat [4], 528 h | 2520
Rat [4], 3360 h | 267

O=C(O)C(Cl)Cl [dichloroacetic acid]
Rat [5]
Settings | concentration in plasma [ng/mL]
1 h | 6320
2 min | 787

Settings | concentration in plasma [ng/mL]
Rat [6] | 2320

Cc1cccc(Nc2cc(Cl)nc(SCC(=O)O)n2)c1C
Settings | concentration in plasma [ng/mL]
Rat [7], 0.5 h | 5100
Rat [7], 3 h | 342
Rat [8], 0.25 h | 397
Rat [8], 4 h | 308
Rat [9], 2 h | 3450
Rat [9], 6 h | 742

Settings | concentration in plasma [ng/mL]
Rat [10] | 955

ClCCOCOCCCl [Bis 2-Chloroethoxy Methane]
Settings | concentration in heart [ng/g] | concentration in plasma [ng/mL] | concentration in thymus [ng/g]
Rat [11] | 19.3 | – | –
Rat [12] | 55.5 | – | –
Rat [13] | 1380 | – | –
Rat [14] | – | 99.4 | –
Rat [15] | – | – | 32.1
Rat [16] | – | – | 49

OCCC(F)(F)C(F)(F)C(F)(F)C(F)(F)C(F)(F)C(F)(F)C(F)(F)C(F)(F)F [Fluorotelomer alcohol 8+2]
Settings | concentration in brain [ng/g] | concentration in kidney [ng/g] | concentration in plasma [ng/mL]
Rat [17] | 7770 | – | –
Rat [18] | 4990 | – | –
Rat [19] | 2520 | – | –
Rat [21] | – | 1950 | –
Rat [22] | – | 905 | –
Rat [24] | – | – | 3800

concentration in plasma [ng/mL]
Settings | 0.25 h | 3 h | 5 min | 6 h
Rat [20] | 12700 | – | – | 153
Rat [23] | – | 125 | 3710 | –
Rat [25] | 253 | – | – | 40.7

O=C(O)CSCC(=O)O [Thiodiglycolic Acid]
Settings | concentration in heart [ng/g] | concentration in liver [ng/g] | concentration in plasma [ng/mL] | concentration in thymus [ng/g]
Rat [26] | – | 25500 | – | –
Rat [27] | – | 45300 | – | –
Rat [28] | – | 39600 | – | –
Rat [29] | 1040 | – | – | –
Rat [30] | – | 62700 | – | –
Rat [31] | – | 47900 | – | –
Rat [32] | 272 | – | – | –
Rat [33] | – | – | 2150 | –
Rat [34] | – | – | – | 1080
Rat [35] | – | – | 198 | –
Rat [36] | – | – | – | 5770

CCC1(c2ccccc2)C(=O)NC(=O)NC1=O [Phenobarbital]
Settings | concentration in plasma [ng/mL]
Rat [37] | 2870
Rat [38] | 2440
Rat [39] | 340
